Results taken from patent publication US5565437A, “2',3'-dideoxy-2'-fluoro-purine nucleosides and methods for using same” (priority 1992, dated 1996).

Legend:
[1] = tested on: human immunodeficiency virus (HIV); conditions: background statement; cited from earlier work
[2] = relative to adenosine; cited from earlier work
[3] = Acid-catalyzed decomposition / stability in acid, 37° C., HPLC; format: physicochemical
Procedure: In order to study acid-catalyzed decomposition of the subject compounds, a pH 1 buffer was prepared by dissolving 0.746 g KCl and 26.8 g 1.0N HCl in sufficient distilled water to give 200 ml total volume. Ten ml of buffer, prewarmed to 37° C., was added to 102 micrograms of ddA (Compound I), and 93 micrograms of each compounds II or III, 2',3'-dideoxy-2'-alpha-flourodeminine or 2'-beta-flouro-2',3'-dideoxyadenosine. The samples were shaken and maintained at 37° C. Aliquots were taken at timed intervals and neutralized immediately with 0.1 NaOH and chilled on ice. The amounts of ddA and the fluorinated analogs were determined by HPLC analysis using a 4.6×250 mm […] Ultrasphere ODS column protected by a guard column packed with 37-50 micron Vydac 201SC. Elution was with 12% acetonitrile in 0.01 M pH 6.8 phosphate buffer at 1.0 ml/minute. The integrator peak areas were plotted as a function of time, and the data was fitted to a first order decomposition curve by a computer program (MLAB).

adenosine deaminase = assay: Metabolism by adenosine deaminase in the body; format: in vitro ADME
[4] = tested on: human immunodeficiency virus (HIV; HTLV-IIIB virus) in ATH8 cells; assay: HIV cytopathic assay using ATH8 cells (protection against the cytopathic effect of HIV); format: cell-based
Procedure: To test the cytopathic effect of the compounds of the present invention, HIV cytopathic assay was performed using ATH8 cells as described by Mitsuya et al., Proc. Nat. Acad. Sci. USA, 83, 1911 (1986). In brief, 2×10^5 ATH8 cells were preexposed to polybrene, exposed to HTLV-IIIB virus (2000 virus particles/cell) for 45 minutes after treatment with polybrene, resuspended in 1 ml of culture medium containing Interleukin 2 in the presence or absence of various concentrations of compounds, and incubated in culture tubes at 37° C. in 5% CO2 /95% air humidified atmosphere. Control cells were treated similarly but were not exposed to the virus. At various times on days 5 to 7 of culture, the total viable cells were counted in a hemocytometer by the trypan blue dye exclusion method. In the HIV cytopathic effect assay using ATH8 cells, 0.5 to 5 virus particles per cell represent the minimum cytopathic dose of the virus.

HIV = conditions: background statement; cited from earlier work

Nc1ncnc2c1ncn2[C@H]1CC[C@@H](CO)O1 [Compound I, 2',3'dideoxyadenosine]
in vitro activity against HIV [1]: potent in vitro activity | rate of acid-catalyzed hydrolysis of the glycosidic bond, times faster than adenosine [2]: 40,000 times | half-life ([3]; ph 1 kcl/hcl buffer, pH 1.0, 37° C. (FIG. 3)): 0.583 min

Nc1ncnc2c1ncn2[C@@H]1O[C@H](CO)C[C@H]1F [Compound II, 2',3'-dideoxy-2'-alpha-flouroadenosine]
stability to acid-catalyzed decomposition ([3]; pH 2, 37° C. (FIG. 2)): stable to acid-catalyzed decomposition

Nc1ncnc2c1ncn2[C@@H]1O[C@H](CO)C[C@@H]1F [Compound III, 2',3'-dideoxy-2'-beta-fluoroadenosine]
metabolism by adenosine deaminase (adenosine deaminase): metabolism of 2',3'-dideoxy-2'-beta-fluoroadenosine to compound IV | change after exposure to acidic conditions ([3]; 24 hour exposure, pH 1 (FIG. 3)): completely unchanged | durability of the antiviral effect, compared with the parent compound I ([4]; compared with compound I (ddA)): as durable as that of the parent compound | activity and potency in protecting ATH8 cells against the cytopathic effect of HIV, compared with ddA ([4]; substantial viral excess, FIG. 1): approximately as active and potent as ddA

Cc1ccc(C(=O)Nc2ccc(S(=O)(=O)O)c3cc(S(=O)(=O)O)cc(S(=O)(=O)O)c23)cc1NC(=O)c1cccc(NC(=O)Nc2cccc(C(=O)Nc3cc(C(=O)Nc4ccc(S(=O)(=O)O)c5cc(S(=O)(=O)O)cc(S(=O)(=O)O)c45)ccc3C)c2)c1 [suramin]
HIV replication in the presence of compound (HIV): considerably slower

antimoniotungstate
HIV replication in the presence of compound (HIV): considerably slower
